Reference: patent US11833160B2, “Ursodeoxycholic acid derivatives as HDAC inhibitors for the treatment of polycystic diseases” (UNIVERSIDAD DEL PAIS VASCO/EUSKAL HERRIKO UNIBERTSITATEA, priority 2017, dated 2023)

Columns and labels:
[1] = system: polycystic human cholangiocytes; assay: CFSE proliferation protocol by flow cytometry; format: cell-based
Method: The proliferation of polycystic human cholangiocytes at 48 hours in the absence or presence of different doses of compound Ia (10, 50, 100, μM) in a quiescence culture medium was analyzed. To that end, the CFSE proliferation protocol (Invitrogen) was used using flow cytometry.

OATP1B1 = molecular target: T1, OATP1B1 (Homo sapiens, UniProt Q9Y6L6); assay: Uptake study, transporter OATP1B1 (data not shown); format: in vitro ADME
T1 construct: expressed in transfected cells
T1 sequence (Q9Y6L6 1-691): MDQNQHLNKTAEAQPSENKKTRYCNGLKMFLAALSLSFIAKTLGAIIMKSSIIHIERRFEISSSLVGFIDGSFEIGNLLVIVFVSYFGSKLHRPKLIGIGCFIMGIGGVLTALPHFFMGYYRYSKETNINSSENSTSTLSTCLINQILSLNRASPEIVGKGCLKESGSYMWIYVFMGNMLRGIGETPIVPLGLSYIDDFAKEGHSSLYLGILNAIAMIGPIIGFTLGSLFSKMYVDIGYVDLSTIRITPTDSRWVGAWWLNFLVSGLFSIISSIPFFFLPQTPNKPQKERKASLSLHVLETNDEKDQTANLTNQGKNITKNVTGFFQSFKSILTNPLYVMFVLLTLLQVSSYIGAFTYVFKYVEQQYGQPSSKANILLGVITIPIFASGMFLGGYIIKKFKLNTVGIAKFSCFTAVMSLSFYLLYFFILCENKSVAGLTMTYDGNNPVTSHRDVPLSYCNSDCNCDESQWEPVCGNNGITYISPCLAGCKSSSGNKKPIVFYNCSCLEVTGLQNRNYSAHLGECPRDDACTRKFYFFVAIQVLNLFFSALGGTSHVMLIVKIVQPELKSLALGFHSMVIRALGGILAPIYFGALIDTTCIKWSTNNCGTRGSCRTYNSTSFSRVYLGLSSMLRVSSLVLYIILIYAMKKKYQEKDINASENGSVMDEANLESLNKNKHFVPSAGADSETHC

[2] = system: normal human cholangiocytes (NHC3); assay: Primary cilium length (cilium staining, confocal microscopy), normal cells; format: cell-based; settings: after treatment
Method: (§1) Cilium staining. Cells cultured on cover slips were washed with PBS, fixed with methanol, and blocked for one hour in a blocking buffer at room temperature. The γ-tubulin primary antibodies (1:100; Sigma-Aldrich, St Louis, MO) and acetylated α-tubulin primary antibodies (1:1000; Sigma-Aldrich) or IFT88 primary antibodies (1:100; ProteinTech, Rosemont, IL, USA) were incubated overnight at 4° C. After washing, Alexa Fluor 594 and 488 secondary antibodies were combined with the primary antibodies (Life Technologies, Carlsbad, CA, USA) and incubated for 2 hours at room temperature. The cover slips were placed on slides with Prolong Gold Antifade with Dapi (Invitrogen, Carlsbad, CA, USA). The slides were observed and images were taken using laser scanning confocal microscopy with a 60× objective (NIKON C1si Confocal Spectral Imaging System, NIKON Instruments Co., Melville, NY, USA). The field was magnified 4× to observe individual cilia. The images were opened with EZ-C1 3.90 Freeviewer and a scale bar was added. The images were converted to Tiff files and quantified using ImageJ Software. The scale bar saved in the image was measured and the scale established. Using the freehand tool, the cilia were traced and measurements taken.

[3] = system: polycystic human cholangiocytes; assay: Primary cilium length (cilium staining, confocal microscopy), polycystic cells; format: cell-based; settings: after treatment
Method: as §1

human HDAC5 = molecular target: T2, human HDAC5 (Homo sapiens, UniProt Q9UQL6); assay: HDAC5 enzymatic activity assay (fluorogenic peptide); format: biochemical; settings: 10-dose, 3-fold serial dilution, triplicate
T2 construct: GST (N); purchased BioMol, Hamburg, Germany; host or cells: baculovirus / Sf9 cells
T2 sequence (Q9UQL6 1-1123 isoform Q9UQL6-3): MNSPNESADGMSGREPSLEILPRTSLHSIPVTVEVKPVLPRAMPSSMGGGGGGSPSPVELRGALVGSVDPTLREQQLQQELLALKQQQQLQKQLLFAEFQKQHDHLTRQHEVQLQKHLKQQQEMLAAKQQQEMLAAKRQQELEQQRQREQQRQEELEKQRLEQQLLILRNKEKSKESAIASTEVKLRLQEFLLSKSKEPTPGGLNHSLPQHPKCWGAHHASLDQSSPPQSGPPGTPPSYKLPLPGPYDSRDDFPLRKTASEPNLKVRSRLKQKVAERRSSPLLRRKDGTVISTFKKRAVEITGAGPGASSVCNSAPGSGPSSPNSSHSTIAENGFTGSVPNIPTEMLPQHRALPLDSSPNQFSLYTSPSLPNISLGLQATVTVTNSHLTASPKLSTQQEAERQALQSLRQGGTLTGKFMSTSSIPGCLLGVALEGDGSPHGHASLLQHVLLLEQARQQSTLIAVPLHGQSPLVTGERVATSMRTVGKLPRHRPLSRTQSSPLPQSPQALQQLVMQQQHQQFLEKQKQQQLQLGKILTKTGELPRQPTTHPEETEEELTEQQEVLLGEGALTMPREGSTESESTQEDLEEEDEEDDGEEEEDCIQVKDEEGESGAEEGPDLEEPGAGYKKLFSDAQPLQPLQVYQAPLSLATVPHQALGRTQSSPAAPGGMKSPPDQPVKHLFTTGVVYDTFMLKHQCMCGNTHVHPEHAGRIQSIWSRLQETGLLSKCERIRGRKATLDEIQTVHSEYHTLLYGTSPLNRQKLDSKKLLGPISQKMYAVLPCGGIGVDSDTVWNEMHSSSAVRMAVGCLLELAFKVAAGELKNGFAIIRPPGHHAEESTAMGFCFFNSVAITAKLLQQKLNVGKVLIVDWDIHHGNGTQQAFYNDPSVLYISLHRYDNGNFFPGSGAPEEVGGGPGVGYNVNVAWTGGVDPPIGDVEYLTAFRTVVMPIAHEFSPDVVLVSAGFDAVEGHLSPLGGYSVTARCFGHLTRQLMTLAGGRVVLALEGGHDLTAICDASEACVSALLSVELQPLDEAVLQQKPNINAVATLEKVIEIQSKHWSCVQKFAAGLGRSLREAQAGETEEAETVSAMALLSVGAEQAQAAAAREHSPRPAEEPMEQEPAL
Method: Peptide substrates: all HDAC assays were performed using acetylated peptide substrates labeled with 7-amino-4-methylcoumarin (AMC): • Substrate for isoforms HDAC1, 2, 3, 6, 10, 11, and HeLa nuclear extract assays: acetylated fluorogenic peptide from p53 residues 379-382 (RHKKAc). • Substrate for isoforms HDAC4, 5, 7, 9: fluorogenic Boc-L-Lys (s-trifluoroacetyl)-AMC. • Substrate for HDAC8 assays: acetylated fluorogenic peptide from p53 residues 379-382 (RHKAcKAc).
50 μl of peptide substrate (see “peptide substrates” section above) and an optimal concentration of the corresponding enzyme (see “enzymes” section above) in the assay buffer at a final DMSO concentration of 1% were incubated in the presence of gradient concentrations of inhibitors (10-dose IC50 mode with 3-fold serial dilution) at 30° C. for 2 hours. The reactions were carried out in a 96-well microplate for fluorometry in a 50 μl reaction volume. After the deacetylation reaction, Fluor-de-Lys-Developer (BioMol Cat. #KI-105) was added to each well to digest the deacetylated substrate, thereby producing the fluorescent signal. The reaction was carried out for 45 minutes at 30° C. with 5% CO2; the fluorescent signal was then measured using an excitation wavelength of 360 nm and an emission wavelength of 460 nm in a microplate-reading fluorometer (GeminiXS, Molecular Devices, Sunnyvale, CA). […]

[4] = system: α-acetylated-tubulin in polycystic human cholangiocytes; assay: Immunoblot of α-acetylated-tubulin; format: cell-based; settings: different doses
Method: The expression of α-acetylated-tubulin (Ac-α-tubulin) and lysine 9-acetylated histone 3 (Ac-H3K9) in polycystic human cholangiocytes in culture was analyzed using Ac-α-tubulin-specific primary antibodies (1:2000, Sigma-Aldrich) and H3K9-specific primary antibodies (1:500, Cell Signaling Technology) and a peroxidase-conjugated secondary antibody (1:5000, Sigma-Aldrich). The expression of each protein was quantified using a chemiluminescence system (Amersham, GE Healthcare). The GAPDH protein was used as loading control.

Compound	proliferation of polycystic human cholangiocytes ([1]; 48 hours, 10, 50, 100 μM, quiescence culture medium)	inhibition of proliferation compared with UDCA ([1]; 48 hours, UDCA at 100 μM)	transport through OATP1B1 (OATP1B1)	length of the cilia, normal human cholangiocytes [2]	length of the cilia, polycystic human cholangiocytes [3]	IC50 (human HDAC5)	expression of α-acetylated-tubulin [4]	melting point
C[C@H](CCC(=O)NCc1ccc(C(=O)NO)cc1)[C@H]1CC[C@H]2[C@@H]3[C@@H](O)C[C@@H]4C[C@H](O)CC[C@]4(C)[C@H]3CC[C@]12C [Compound Ia]	inhibits the hyper-proliferation of polycystic human cholangiocytes in vitro in a dose-dependent manner	with a higher intensity than UDCA	not through ASBT or OATP1B1	did not lead to any significant variations	significantly increased	14.1 µM	increases significantly and in a dose-dependent manner	–
C[C@H](CCC(=O)NCC(=O)NCc1ccc(C(=O)NO)cc1)[C@H]1CC[C@H]2[C@@H]3[C@@H](O)C[C@@H]4C[C@H](O)CC[C@]4(C)[C@H]3CC[C@]12C [Ib, 4-((2-((R)-4 ((3R,5S,7S,8R,9S,10S,13R,14S,17R)-3,7-dihydroxy-10,13-dimethylhexadecahydro-1H-cyclopenta[a]phenanthren-17-yl)pentanamide)acetamido)methyl)-N-hydroxybenzamide]	–	–	–	–	–	–	–	153 to 155 °C
